This is an account of results in patent publication US20250026741A1, “INHIBITORS OF THE ONCOGENIC SHP2 PHOSPHATASE AND USES THEREOF” (Sanford Burnham Prebys Medical Discovery Institute, priority 2021, published 2025).

Experiment [1] has as its target striatal-enriched tyrosine phosphatase (STEP) catalytic domain (Homo sapiens (Human), UniProt P54829). Description: DiFMUP phosphatase inhibition assay, STEP. To be noted: catalytic domain, DiFMUP at Km (4 μM). The experiment is classed as biochemical. How it is done:
(§1) Selectivity is one of the biggest challenges in PTP inhibitor development. […] Similar to SHP2, we adapted a 384-well plate format DiFMUP assay for recombinant PTP1B and STEP and performed Michaelis-Menten experiments to determine DiFMUP Km values for each phosphatase. IC50 values of our inhibitors for PTP1B and STEP were determined in 10-point dose-response assays with DiFMUP used at the concentration corresponding to the respective Km value. […] Other inhibitors with good relative selectivity for SHP2 included #02 (13-fold selective over PTP1B; 73-fold selective over STEP) and #05 (5-fold selective over PTP1B; >71-fold selective over STEP).
(§2) SHP2 inhibitors were tested at room temperature (RT) in a 384-well plate format standard phosphatase fluorescence intensity assay using DiFMUP (Invitrogen/Thermo Fisher Scientific, Carlsbad, CA) as a substrate and a total reaction volume of 25 μL. SHP2 inhibitors or vehicle (DMSO) were spotted in triplicate into a black Greiner FLUOTRAC™ 200 384-well microplate (#781076, Greiner) for a 10-point dose-response assay using an Echo®555 Liquid Handler (Labcyte, Inc., San Jose, CA). PTP working solutions were prepared at a 0.625 nM concentration (for a final concentration of 0.5 nM) in buffer containing 50 mM Bis-Tris pH 6.0, 50 mM NaCl, 5 mM DTT, and 0.01% Tween® 20. Prior to the assay, a dually phosphorylated insulin receptor substrate 1 (IRS-1) peptide [625 nM (500 nMfinal) (30)] was added to full-length WT SHP2 working solutions and incubated for 20 min. DiFMUP working solutions at 5× final concentration were prepared in 50 mM Bis-Tris pH 6.0, 50 mMNaCl, and 0.01% Tween 20. 20 μL of PTP working solution was dispensed into the microplate and incubated with inhibitor for 20 min at RT. […] The reaction was initiated by addition of 5 μL DiFMUP working solutions. Fluorescence intensity was measured in kinetic mode (every minute for 7 or 10 min) using a Tecan Spark® Multimode Microplate Reader (Tecan, Groedig, Austria) with an excitation wavelength of 360 nm and an emission wavelength of 460 nm. The initial rates were determined from the linear progression curves of the PTP reaction. The nonenzymatic hydrolysis of the substrate was corrected by using a control without addition of enzyme. IC50 values were calculated from the corrected initial rates by nonlinear regression using the program GraphPad Prism (GraphPad Software, Inc., San Diego, CA) Version 8. Dose-response inhibition assays of SHP2cat using the substrate OMFP were performed similarly as described above for DiFMUP. OMFP was used at a concentration corresponding to its Km value for SHP2cat (50 μM final). Fluorescence intensity was measured in kinetic mode (every minute for 10 min) using a Tecan Spark Multimode Microplate Reader with an excitation wavelength of 485 nm and an emission wavelength of 535 nm. Initial rates were determined and IC50 vales calculated as described above.

The target in experiment [2] is SHP2 catalytic domain (SHP2cat; residues 248-527) (Homo sapiens (Human), UniProt Q06124). Description: DiFMUP fluorescence intensity phosphatase inhibition assay, SHP2cat. The experiment is classed as biochemical.
Chain of SHP2 catalytic domain (SHP2cat; residues 248-527) (Q06124 248-527): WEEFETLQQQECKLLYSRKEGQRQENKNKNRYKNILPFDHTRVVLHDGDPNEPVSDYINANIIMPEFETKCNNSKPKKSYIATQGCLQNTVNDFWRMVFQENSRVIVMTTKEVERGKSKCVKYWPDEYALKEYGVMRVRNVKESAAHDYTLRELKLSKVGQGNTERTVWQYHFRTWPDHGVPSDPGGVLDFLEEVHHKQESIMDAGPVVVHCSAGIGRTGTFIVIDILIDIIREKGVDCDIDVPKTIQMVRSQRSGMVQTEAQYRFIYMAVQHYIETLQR
Excerpt: (§3) To test the synthesized compounds for their potential to inhibit SHP2 activity, a fluorescence intensity-based assay using 6,8-difluoro-4-methylumbelliferyl phosphate (DiFMUP) as the substrate was adapted for three recombinant SHP2 constructs: 1) the SHP2 catalytic domain (SHP2cat; residues 248-527), 2) the full-length SHP2-E76K oncogenic mutant, and 3) the full-length SHP2 wild-type (SHP2-WT). The recombinant SHP2 proteins were expressed and purified. A dually phosphorylated peptide derived from the insulin receptor substrate 1 (IRS-1) served as a surrogate binding protein and was used to activate SHP2-WT. […] Michaelis-Menten experiments to determine the DiFMUP Michaelis-Menten constant (Kmn) for each SHP2 construct were performed and yielded the following values: SHP2-WT, Km=60 μM; SHP2-E76K, Km=20 μM; SHP2cat, Km=20 μM. Relative maximum rates (Vmax) of the DiFMUP reactions were as follows: SHP2-WT, Vmax=871 AFU/min; SHP2-E76K, Vmax, =2730 AFU/min; SHP2cat, Vmax=2912 AFU/min. IC50 values for each compound were determined from initial rates in 10-point dose-response assays using DiFMUP at a concentration corresponding to its Km value for the respective SHP2 construct.
as §2

In experiment [3] the target is full-length SHP2-E76K oncogenic mutant (Homo sapiens (Human), UniProt Q06124, E76K). Description: DiFMUP fluorescence intensity phosphatase inhibition assay, SHP2-E76K. It is filed as biochemical.
Chain of full-length SHP2-E76K oncogenic mutant (Q06124 whole entry E76K): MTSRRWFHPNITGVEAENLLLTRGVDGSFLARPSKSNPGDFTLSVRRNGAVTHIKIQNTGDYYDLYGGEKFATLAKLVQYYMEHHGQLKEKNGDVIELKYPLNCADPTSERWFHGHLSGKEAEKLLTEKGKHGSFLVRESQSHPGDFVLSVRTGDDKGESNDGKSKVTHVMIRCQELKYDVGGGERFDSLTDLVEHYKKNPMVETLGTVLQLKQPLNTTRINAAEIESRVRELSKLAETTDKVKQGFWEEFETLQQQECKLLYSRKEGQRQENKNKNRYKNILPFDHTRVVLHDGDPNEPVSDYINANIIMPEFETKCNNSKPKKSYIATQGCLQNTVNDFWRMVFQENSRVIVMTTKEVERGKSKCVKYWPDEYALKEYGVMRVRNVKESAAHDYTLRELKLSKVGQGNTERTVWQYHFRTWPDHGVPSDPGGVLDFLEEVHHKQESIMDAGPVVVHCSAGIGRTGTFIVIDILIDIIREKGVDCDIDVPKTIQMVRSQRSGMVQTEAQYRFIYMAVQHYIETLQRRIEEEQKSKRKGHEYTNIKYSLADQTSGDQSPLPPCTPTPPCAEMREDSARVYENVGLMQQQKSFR
Excerpt: as §3, §2

Experiment [4] addresses full-length SHP2 wild-type (SHP2-WT) (Homo sapiens (Human), UniProt Q06124). In words: DiFMUP fluorescence intensity phosphatase inhibition assay, SHP2-WT activated with IRS-1 peptide. The experiment is classed as biochemical. As to conditions: DiFMUP at Km (60 μM), IRS-1 peptide activated.
Excerpt: as §3, §2

In experiment [5] the target is PTP1B catalytic domain (Homo sapiens (Human), UniProt P18031). In words: DiFMUP phosphatase inhibition assay, PTP1B. To be noted: catalytic domain, DiFMUP at Km (25 μM). It is filed as biochemical. As to the method:
as §1, §2

In experiment [6] the test system is Kasumi-1 acute myeloid leukemia (AML) cells. Description: Cell viability assay (CellTiter-Glo), Kasumi-1. The experiment is classed as cell-based. To be noted: Kasumi-1 cells, various concentrations, 3 d. The text has this: (§4) Inhibition of SHP2 has been reported to inhibit the growth of cancer cells including Kasumi-1 acute myeloid leukemia (AML) and KYSE-520 esophageal cancer cells. […] Cell viability is shown as a percentage of the vehicle (DMSO) control and represents the mean±SD. B) #02 dose-response curves in cell viability assays using Kasumi-1, KYSE-520, MOLM-13, and […] cells after 3 d in culture. The percentages compared to DMSO vehicle control were curve fitted using nonlinear regression (log[inhibitor] vs. normalized response, variable slope) and represent the mean±SD. C) Cell viability of […] and MDA-MB-468 triple-negative breast cancer (TNBC) cells in the presence of various concentrations of #02 or the SHP2 allosteric inhibitor SHP099 after 5 d in culture. Cell viability is shown as a percentage of DMSO vehicle control, representing mean±SD, and curve fitted as in B). D) Colony formation assay (11 d) of […] and MDA-MB-468 TNBC cells in the presence of various concentrations of #02 or the SHP2 allosteric inhibitor SHP099. E) Phospho-ERK1/2 (p-ERK1/2) immunoblot analysis from total cell lysates of MOLM-13 AML cells treated with #02 at the indicated concentrations, or with SHP2 allosteric inhibitor RMC-4550 (RMC, 1 μM) for 3 h or 24 h. The quantitation of p-ERK1/2 levels is shown as the percentage of the DMSO (vehicle) control and represents data from three independent experiments (mean±SD). F) Viability of AML patient-derived cells in the presence of 10 μM #02 or 10 μM SHP2 allosteric inhibitor RMC-4550 after 2 d, 4 d, or 6 d in culture. Cell viability is shown as a percentage of the DMSO vehicle control and represents the mean±SD (*p<0.05; **p<0.01; ****p<0.0001; unpaired test with Welch's correction) G) Viability of MOLM-13 cells and MOLM-13-Cas9-mCherry cells with SHP2 knockout (KO) in the presence of #01, #02, and allosteric inhibitor SHP099 at various concentrations (10-point dose-response). The percentages compared to the DMSO vehicle control were curve fitted using nonlinear regression (log[inhibitor] vs. normalized response, variable slope) and represent the mean±SD. SHP2 protein levels in regular MOLM-13 cells (WT), MOLM-13-Cas9-mCherry cells (Cas9), and MOLM-13-Cas9-mCherry cells with SHP2 KO (SHP2 KO) were evaluated by immunoblot analysis using SHP2 antibodies.
(§5) Viability of AML, esophageal carcinoma, and TF-1 cells was assessed using the ATP-depletion assay CellTiter-Glo® (Promega). Cells were harvested at 1×10^6/mL to 2×10^6 cells/mL with cell numbers determined by trypan blue using the Countess Cell counter (Thermo Scientific) and resuspended in culture media. […] Luminescence was read on a Tecan Spark® Multimode Microplate Reader and data analyzed using Graph Pad Prism software.

In experiment [7] the test system is KYSE-520 esophageal cancer cells. Description: Cell viability assay (CellTiter-Glo), KYSE-520. It is filed as cell-based. To be noted: KYSE-520 cells, various concentrations, 3 d.
Excerpt: as §4, §5

Where [8] appears, read: DiFMUP at Km (20 μM), read-out: SHP2cat IC50.
Where [9] appears, read: DiFMUP at Km (20 μM), 10-point dose-response, read-out: SHP2-E76K IC50.

SMILES strings stand for the structures. Read-outs that look alike come from different tables or passages of the source.

Chain of full-length SHP2 wild-type (SHP2-WT) (Q06124 whole entry, other chains not shown): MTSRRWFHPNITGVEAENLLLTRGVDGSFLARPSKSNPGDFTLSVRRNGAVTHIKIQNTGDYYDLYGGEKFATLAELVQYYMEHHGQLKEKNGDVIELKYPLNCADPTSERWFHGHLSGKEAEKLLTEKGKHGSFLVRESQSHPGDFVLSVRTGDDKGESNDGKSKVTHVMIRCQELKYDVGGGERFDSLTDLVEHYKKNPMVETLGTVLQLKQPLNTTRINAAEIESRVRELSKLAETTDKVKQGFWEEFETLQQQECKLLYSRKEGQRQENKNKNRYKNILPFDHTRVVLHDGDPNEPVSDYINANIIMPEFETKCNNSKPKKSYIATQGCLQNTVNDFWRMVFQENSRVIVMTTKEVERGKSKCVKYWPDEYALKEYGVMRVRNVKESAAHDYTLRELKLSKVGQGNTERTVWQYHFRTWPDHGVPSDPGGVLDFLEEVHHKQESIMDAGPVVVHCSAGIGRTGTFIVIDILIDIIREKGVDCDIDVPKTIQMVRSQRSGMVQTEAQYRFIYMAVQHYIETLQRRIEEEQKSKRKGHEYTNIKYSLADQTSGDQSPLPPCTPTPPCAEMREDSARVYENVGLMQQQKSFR
Chain of PTP1B catalytic domain (P18031 1-300): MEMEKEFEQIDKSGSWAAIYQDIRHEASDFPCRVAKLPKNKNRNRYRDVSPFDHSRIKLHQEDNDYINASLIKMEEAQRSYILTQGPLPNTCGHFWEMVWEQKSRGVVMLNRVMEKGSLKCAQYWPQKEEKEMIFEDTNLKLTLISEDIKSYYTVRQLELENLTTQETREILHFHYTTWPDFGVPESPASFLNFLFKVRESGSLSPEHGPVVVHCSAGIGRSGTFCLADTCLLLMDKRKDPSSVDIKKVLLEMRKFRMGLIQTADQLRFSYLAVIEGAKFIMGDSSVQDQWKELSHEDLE
Chain of striatal-enriched tyrosine phosphatase (STEP) catalytic domain (P54829 280-565 limits assumed): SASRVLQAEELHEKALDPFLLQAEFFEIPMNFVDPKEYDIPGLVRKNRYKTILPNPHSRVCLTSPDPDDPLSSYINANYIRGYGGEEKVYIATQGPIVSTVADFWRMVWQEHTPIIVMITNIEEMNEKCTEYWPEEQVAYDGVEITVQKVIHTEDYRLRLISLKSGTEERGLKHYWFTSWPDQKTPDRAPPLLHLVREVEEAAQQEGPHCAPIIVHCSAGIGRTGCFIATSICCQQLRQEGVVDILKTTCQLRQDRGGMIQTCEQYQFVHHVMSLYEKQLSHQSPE

Regarding `O=C1CCC/C1=C\c1ccc(-c2ccc(O)c(C(=O)Nc3ccccc3)c2)o1` [#03, 2-Hydroxy-5-(5-((2-oxocyclopentylidene)methyl)furan-2-yl)-N-phenylbenzamide], the IC50 is 27 µM in experiment [1]; 1 to 20 µM in experiment [2] (setting [8]); 1.1 µM in experiment [2] (catalytic domain, DiFMUP at Km, read-out: SHP2 IC50); 1 to 20 µM in experiment [3] (setting [9]); 1 to 20 µM in experiment [4]; 1.9 µM in experiment [5].
With `Nc1cccc(NC(=O)c2cc(-c3ccc(/C=C4\Sc5ccccc5C4=O)o3)ccc2O)c1` [#08, (Z)—N-(3-aminophenyl)-2-hydroxy-5-(5-((3-oxobenzo[b]thiophen-2(3H)-ylidene)methyl)furan-2-yl)benzamide], the IC50 in experiment [2] (setting [8]), in experiment [3] (setting [9]) and in experiment [4] was 1 to 20 µM in each case.
In the case of `O=C(O)c1cc(-c2ccc(/C=C3\Cc4ccccc4C3=O)o2)ccc1O` [#09, 2-Hydroxy-5-(5-((1-oxo-1,3-dihydro-2H-inden-2-ylidene)methyl)furan-2-yl)benzoic acid], the IC50 in experiment [2] (setting [8]), in experiment [3] (setting [9]) and in experiment [4] was 1 to 20 µM in each case.
As to `O=C(NNc1ccccc1)c1cc(-c2ccc(/C=C3\Sc4ccccc4C3=O)o2)ccc1O` [#11, (Z)-2-Hydroxy-5-(5-((3-oxobenzo[b]thiophen-2(3H)-ylidene)methyl)furan-2-yl)-N′-phenylbenzohydrazide], the IC50 in experiment [2] (setting [8]), in experiment [3] (setting [9]) and in experiment [4] was 1 to 20 µM throughout.
For the compound `O=C1/C(=C/c2ccc(-c3ccc(O)c(C(=O)N4CCCCC4)c3)o2)Sc2ccccc21` [#12, (Z)-2-((5-(4-Hydroxy-3-(piperidine-1-carbonyl)phenyl)furan-2-yl)methylene)benzo[b]thiophen-3(2H)-one], the IC50 in experiment [2] (setting [8]) lay within 1 to 20 µM; in experiment [3] (setting [9]), 1 to 20 µM; in experiment [4] it was 20 to 100 µM.
For the compound `CC(C)NC(=O)c1cccc(-c2ccc(/C=C3\Sc4ccccc4C3=O)o2)c1` [#20, (Z)—N-Isopropyl-3-(5-((3-oxobenzo[b]thiophen-2(3H)-ylidene)methyl)furan-2-yl)benzamide], the “effect on cancer cell growth” value in experiment [6] and in experiment [7] was “no notable effects” throughout. The IC50 in experiment [3] (setting [9]) was no less than 100 µM; in experiment [3] (inactive analog used as negative control, SHP2 construct not specified, read-out: SHP2 IC50), greater than 100 µM; in experiment [4] it was no less than 100 µM.
Consider `O=C1/C(=C/c2ccc(-c3ccc(O)c(C(=O)O)c3)o2)CCC/C1=C\c1ccc(-c2ccc(O)c(C(=O)O)c2)o1` [#40], for which the IC50 in experiment [2] (setting [8]), in experiment [3] (setting [9]) and in experiment [4] was no more than 1 µM each time.
Regarding `O=C(/C=C/c1ccc(-c2cccc(C(=O)O)c2)o1)/C=C/c1ccc(-c2cccc(C(=O)O)c2)o1` [#41], the IC50 in experiment [2] (setting [8]), in experiment [3] (setting [9]) and in experiment [4] was no more than 1 µM in each case.
`O=C1/C(=C/c2ccc(-c3cccc(C(=O)O)c3)o2)CC/C1=C\c1ccc(-c2cccc(C(=O)O)c2)o1` [#42]: the IC50 in experiment [2] (setting [8]), in experiment [3] (setting [9]) and in experiment [4] was no more than 1 µM each time.
Consider `O=C(/C=C/c1ccc(-c2ccc(O)c(C(=O)O)c2)o1)c1cccc(C(=O)/C=C/c2ccc(-c3ccc(O)c(C(=O)O)c3)o2)c1` [#43], for which the figures for the IC50 in experiment [2] (setting [8]), in experiment [3] (setting [9]) and in experiment [4] were no more than 1 µM, no more than 1 µM and 1 to 20 µM, respectively.
For the compound `O=C(O)c1cccc(-c2ccc(/C=C/C(=O)c3cccc(C(=O)/C=C/c4ccc(-c5cccc(C(=O)O)c5)o4)c3)o2)c1` [#45], the IC50 in experiment [2] (setting [8]), in experiment [3] (setting [9]) and in experiment [4] was 1 to 20 µM in each case.
In the case of `N#Cc1cccc(-c2ccc(/C=C/C(=O)/C=C/c3ccc(-c4cccc(C#N)c4)o3)o2)c1` [#46], the IC50 in experiment [2] (setting [8]), in experiment [3] (setting [9]) and in experiment [4] was 1 to 20 µM in each case.
